Measurements reported in patent US20260048036A1, “CRYSTALLINE FORMS OF A GLUCOSYLCERAMIDE SYNTHASE INHIBITOR AND USES THEREOF” (ACELINK THERAPEUTICS, INC., priority 2022, published 2026).
Numbering of substitutions follows the chain as printed. In brackets after ≈: the same amount, converted by molar mass. Several values for one entry are separate records, joined by “and”; a condition that tells them apart may be missing. Equal values may be shown once.

Legend:
[1] = molecular target: T1, Glucosylceramide synthase (GCS) (Canis lupus familiaris, UniProt A0A8I3MXG6); assay: GCS enzymatic assay with MDCK cell lysate; assay type: biochemical, canine
T1 construct: The MDCK, K-562, and L6 cell lines all endogenously express GCS enzyme; host or cells: MDCK (canine kidney) cell lysate
T1 sequence (A0A8I3MXG6 1-394): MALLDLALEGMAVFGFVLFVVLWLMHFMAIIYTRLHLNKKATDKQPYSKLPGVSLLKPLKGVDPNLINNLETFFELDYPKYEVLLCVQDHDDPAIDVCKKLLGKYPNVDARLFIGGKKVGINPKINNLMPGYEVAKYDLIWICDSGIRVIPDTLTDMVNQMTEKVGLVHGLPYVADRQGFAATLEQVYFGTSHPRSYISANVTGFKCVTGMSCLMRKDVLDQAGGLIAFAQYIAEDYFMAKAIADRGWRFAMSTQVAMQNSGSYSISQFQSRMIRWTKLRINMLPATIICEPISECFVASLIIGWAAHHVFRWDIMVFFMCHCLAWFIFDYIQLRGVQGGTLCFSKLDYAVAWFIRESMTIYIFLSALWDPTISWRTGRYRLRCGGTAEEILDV
Excerpt: (§1) The reaction product, C6-NBD-glucosylceramide, could then be detected and quantified by LC-MS/MS. The inventors used this method to test and validate the effect of various GCS inhibitors on GCS enzyme activity from different species.
(§2) The GCS enzyme activity was detected by using the fluorescent substrate, C6-NBD-ceramide, and monitoring the formation of the fluorescent reaction product, C6-NBD-glucosylceramide. First, the inventors used cell lysate derived from a canine kidney cell line (MDCK, ATCC Cat #CCL-34™) as the source of GCS and tested the inhibitory activity of several control and test compounds.
GCS activity was evaluated using a GCS enzyme assay derived from MDCK or L6 cell lysates.
MDCK or L6 cell lysates were prepared using M-PER in the presence of a protease inhibitor cocktail. Each 100 mm dish (100% confluent) was lysed with 250 μl of M-PER containing protease inhibitors. Protein concentration was determined using Pierce BCA protein assay kit.
The final concentration of DMSO was 0.1% in both compound treated and DMSO only treated samples. Each individual reaction was terminated with 11 volumes of methanol:acetonitrile (6:5; containing 200 ng/ml Tolbutamide as internal control). After sufficient mixing, reactions were centrifuged at 2000 rpm for 10 mins, supernatant was injected into the LC-MS/MS for analysis.
(§3) The quantitative analysis of C6-NBD-glucosylceramide was performed on a Shimadzu ultra-fast liquid chromatography coupled with API 4000 mass spectrometer. Analyst 1.5 software packages were used to control the LC-MS/MS system, as well as for data acquisition and processing.
(§4) The C6-NBD-glucosylceramide reading was normalized first by dividing the peak area of C6-NBD-glucosylceramide with the peak area of the internal standard, and then the amount was calculated according to the standard curve generated in the same assay run. For the cell based assay results, the amount of C6-NBD-glucosylceramide was also normalized by the protein concentration of the cell samples.
IC50 values were generated from sigmoidal dose-response (variable slope) curves with GraphPad Prism software (GraphPad Software, Inc., San Diego, CA) using the percent inhibition of C6-NBD-glucosylceramide accumulation relative to DMSO control.

[2] = molecular target: T2, Glucosylceramide synthase (GCS) (Homo sapiens, UniProt Q16739); assay: GCS cell-based assay with live K-562 cells; details: C6-NBD-glucosylceramide by LC-MS/MS
T2 construct: The MDCK, K-562, and L6 cell lines all endogenously express GCS enzyme; host or cells: K-562 human leukemia cells, live
T2 sequence (Q16739 1-394): T1 sequence (A0A8I3MXG6 1-394) with V20L, S196Y
Excerpt: as §1, §2, §3
as §4, with “samples. […]” for “samples.”

[3] = Water activity study (Form A + Form C slurry); assay type: physicochemical; details: ethanol/water mixtures, a.w. 0.2-1.0, 25° C. or 50° C., XRPD of wet cake
Procedure: Water activity experiments were conducted at 25° C. or 50° C. to determine critical water activity between anhydrate and hydrate. […] The mixtures were stirred at 25° C. or 50° C. for at least 2 days. The obtained solid part (wet cake) was investigated by XRPD.
The results of water activity study in different solvents at 25° C. and 50° C. are shown in Table 10 and Table 11, respectively. The water activity of a binary solvent system was calculated based on UNIFAC method (UNIQUAC Functional-group Activity Coefficients).

physchem = details: thermodynamic from solid
[4] = Solid state stability, 1 week (HPLC purity, color, XRPD); details: for Bulk (XRPD) / Purity, Bulk (HPLC): Solid state, 1 week; for Purity, Bulk (HPLC): initial purity 99.8%
[5] = 0.1 μM, 60 μg MDCK lysate/reaction, N = 1, N = 2
[6] = 50 mM acetate buffer, pH 4.5, 37 °C, pH 4.5, aqueous buffer
[7] = 50 mM phosphate buffer, pH 6.8, 37 °C, pH 6.8, aqueous buffer

O=C(N[C@H](CN1CCCC1)[C@H](O)c1ccc(OC2CC2)c(Cl)c1)/C(=N/O)c1ccc2cc(Cl)ccc2c1 [Crystalline Form A of Compound 1]
C6-NBD-Ceramide (Normalized to internal control) [1, 5]: 5.04 and 4.88
C6-NBD-Glucosylceramide Concentration [1, 5]: 33.1 nM and 32.5 nM
Inhibition [1, 5]: 96.72%
inhibition at 0.1 µM [1, 5]: 96.7%
IC50 ([1]; MDCK cell lysate as source of GCS, C6-NBD-glucosylceramide by LC-MS/MS): 7.66 nM
IC50 [2]: 6.15 nM
form stability in water activity study [3]: stable in a wide range of water activity
solubility at 2 h (physchem; [6]): 230 µg/mL (≈ 424 µM)
solubility at 24 h (physchem; [6]): 210 µg/mL (≈ 387 µM)
solubility at 2 h (physchem; [7]): 10 µg/mL (≈ 18.4 µM)
solubility at 24 h (physchem; [7]): 5 µg/mL (≈ 9.22 µM)
solubility at 24 h (physchem; 0.1N HCl, pH 1.2, 37 °C, pH 1.2, simulated gastric fluid): 970 µg/mL (≈ 1790 µM)
solubility at 2 h (physchem; FaSSIF-V1, 37 °C, pH 6.5, fassif): 30 µg/mL (≈ 55.3 µM)
solubility at 2 h (physchem; FeSSIF-V1, 37 °C, pH 5, fessif): 1970 µg/mL (≈ 3630 µM)
solubility at 24 h (physchem; FeSSIF-V1, 37 °C, pH 5, fessif): > 2000 µg/mL
solubility at 2 h (physchem; SGF, 37 °C, pH 2, simulated gastric fluid): 1160 µg/mL (≈ 2140 µM)
chemical and physical stability ([4]; 25° C./92% RH open container, 40° C./75% RH open container, 60° C. tight container, one week): chemically and physically stable
Bulk (XRPD) ([4]; 25° C./92% RH, open container): No form change
Purity, Bulk (HPLC) ([4]; 25° C./92% RH, open container): 99.8%
Bulk (XRPD) ([4]; 40° C./75% RH, open container): No form change
Purity, Bulk (HPLC) ([4]; 40° C./75% RH, open container): 99.8%
Bulk (XRPD) ([4]; 60° C., tight container): No form change
Purity, Bulk (HPLC) ([4]; 60° C., tight container): 99.8%
